Drawing on US20260176320A1, “MODULATORS OF G-PROTEIN COUPLED RECEPTORS” (priority 2018, published 2026), this text covers Emax and EC50 for 5 compounds.

Read-outs that look alike come from different tables or passages of the source.

One assay concerns the target GLP-1R (Homo sapiens, UniProt P43220). The assay can be described thus: HitHunter cAMP assay (GLP-1R). The assay is classed as cell-based. Conditions: cAMP; for Emax: read-out: (Emax) GLP-1R. On the procedure: (§1) Suspension cells were harvested and resuspended in 1×HBSS (+10 mM HEPES, 625 μM IBMX, 0.2% BSA) according to the following procedure: 5 μL of 2× cell suspension+1× antibody were added to each well, where the optimal cell density was 10,000 cells per well in a low volume 384-well plate. Agonist serial dilutions in a separate 384 well dilution plate in a 22-point series of 2× dilutions of agonist in DMSO were performed as follows. 80 μL of the highest concentration of Agonist/DMSO was added to well No. 1. 40 μL was removed from well No. 1 and added it to well No. 2, followed by gentle mixing. […] This process was repeated until well No. 22. Additional serial dilutions for additional agonists were set up in a similar manner. 50 nL of each 2× agonist serial dilution was added in duplicate to the designated agonist rows of the assay plate using the Labcyte ECHO. Assay plate was incubated for 30 minutes at room temperature. Following agonist incubation, 5 μL of cAMP Antibody Reagent was added to all wells. […] Plates were spun down briefly. Assay plate was incubated for 1 hour at room temperature in the dark for the immunocompetition reaction to occur. […] Plates were spun down briefly. Assay plate was incubated O/N at room temperature in the dark. Samples were read on Tecan i-control plate reader using luminescence mode with 300 ms integration time. Data analysis was performed using GraphPad Prism.
In general terms: cAMP levels reflect the balance of adenylyl cyclase and phosphodiesterase activity.

For a further assay, the target named is T1, GIP-R (Homo sapiens, UniProt P48546).
T1 sequence (P48546 22-466): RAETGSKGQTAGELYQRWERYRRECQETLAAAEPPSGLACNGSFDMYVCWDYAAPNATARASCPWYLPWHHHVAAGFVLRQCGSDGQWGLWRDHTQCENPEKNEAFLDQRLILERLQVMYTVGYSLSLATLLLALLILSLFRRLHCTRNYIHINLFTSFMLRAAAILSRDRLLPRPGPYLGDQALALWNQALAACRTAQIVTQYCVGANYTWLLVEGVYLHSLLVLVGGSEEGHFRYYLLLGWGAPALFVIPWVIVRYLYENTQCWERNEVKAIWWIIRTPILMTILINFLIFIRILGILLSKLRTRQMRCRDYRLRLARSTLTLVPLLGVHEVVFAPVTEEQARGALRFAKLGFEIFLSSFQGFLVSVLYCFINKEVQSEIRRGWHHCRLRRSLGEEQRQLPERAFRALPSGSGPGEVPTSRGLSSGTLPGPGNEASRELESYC
The experiment in a line: HitHunter cAMP assay (GIP-R). The assay is classed as cell-based. Conditions: cAMP; for Emax: read-out: (Emax) GIP-R; for Emax at 1 µM: read-out: (Emax) GIP-R at 1 μM, Table 3. How it is done:
as §1

GLP-1R, sequence (P43220 24-463): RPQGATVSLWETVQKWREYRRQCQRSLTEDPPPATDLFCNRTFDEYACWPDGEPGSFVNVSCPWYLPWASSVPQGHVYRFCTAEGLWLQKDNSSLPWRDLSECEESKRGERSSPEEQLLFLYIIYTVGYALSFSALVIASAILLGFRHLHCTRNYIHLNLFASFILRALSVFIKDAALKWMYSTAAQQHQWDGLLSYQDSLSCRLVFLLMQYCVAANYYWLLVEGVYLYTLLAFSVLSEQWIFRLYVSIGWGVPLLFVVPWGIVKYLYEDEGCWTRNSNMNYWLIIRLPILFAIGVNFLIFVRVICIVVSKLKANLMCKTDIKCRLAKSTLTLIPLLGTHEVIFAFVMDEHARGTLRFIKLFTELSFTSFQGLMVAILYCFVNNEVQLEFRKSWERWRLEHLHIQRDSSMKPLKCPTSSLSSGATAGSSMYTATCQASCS

The Emax is the greatest response seen or fitted, relative to the assay's reference. As for `CCCCCCCCCCCCCCCC(=O)N[C@@H](CCC(=O)NCCCC[C@H](NC(=O)[C@H](CO)NC(=O)[C@@H]1CCCN1C(=O)[C@@H]1CCCN1C(=O)[C@@H]1CCCN1C(=O)[C@H](C)NC(=O)CNC(=O)[C@H](CO)NC(=O)[C@H](CO)NC(=O)[C@@H]1CCCN1C(=O)CNC(=O)CNC(=O)[C@H](C)NC(=O)[C@H](CC(C)C)NC(=O)[C@H](CC(C)C)NC(=O)[C@H](Cc1c[nH]c2ccccc12)NC(=O)[C@H](CC(N)=O)NC(=O)[C@@H](NC(=O)[C@H](Cc1ccccc1)NC(=O)[C@H](CCC(=O)O)NC(=O)C(C)(C)NC(=O)[C@H](C)NC(=O)[C@H](C)NC(=O)[C@H](CCC(N)=O)NC(=O)[C@H](CCCCN)NC(=O)[C@H](CC(=O)O)NC(=O)[C@H](CC(C)C)NC(=O)[C@H](Cc1ccc(O)cc1)NC(=O)[C@@H](NC(=O)[C@H](CO)NC(=O)[C@H](Cc1ccc(O)cc1)NC(=O)[C@H](CC(=O)O)NC(=O)[C@H](CO)NC(=O)[C@@H](NC(=O)[C@H](Cc1ccccc1)NC(=O)[C@@H](NC(=O)CNC(=O)[C@H](CCC(=O)O)NC(=O)CSCC(=O)NCCN1C(=O)CC(N)C1=O)[C@@H](C)O)[C@@H](C)O)[C@@H](C)CC)C(C)C)C(N)=O)C(=O)O` (mixture of isomers) [Compound 67], the Emax at GLP-1R (Table 3) was determined as 100%; on GLP-1R (Table 3A), 100%; on GIP-R (Table 3), 65%; at GIP-R (Table 3A), 65%. Moreover, the EC50 on GLP-1R (Table 3, read-out: EC50 GLP-1R/nM) is 0.1 to 1 nM; on GLP-1R (Table 3A, read-out: EC50 GLP-1R/nM), 0.1 to 1 nM; at GIP-R (Table 3, read-out: EC50 GIP-R/nM) it was 1 to 10 nM; at GIP-R (Table 3A, read-out: EC50 GIP-R/nM), 1 to 10 nM.
For `CCCCCCCCCCCCCCCC(=O)N[C@@H](CCC(=O)NCCCC[C@H](NC(=O)[C@H](CO)NC(=O)[C@@H]1CCCN1C(=O)[C@@H]1CCCN1C(=O)[C@@H]1CCCN1C(=O)[C@H](C)NC(=O)CNC(=O)[C@H](CO)NC(=O)[C@H](CO)NC(=O)[C@@H]1CCCN1C(=O)CNC(=O)CNC(=O)[C@H](C)NC(=O)[C@H](CC(C)C)NC(=O)[C@H](CC(C)C)NC(=O)[C@H](Cc1c[nH]c2ccccc12)NC(=O)[C@H](CC(N)=O)NC(=O)[C@@H](NC(=O)[C@H](Cc1ccccc1)NC(=O)[C@H](CCC(=O)O)NC(=O)C(C)(C)NC(=O)[C@H](C)NC(=O)[C@H](C)NC(=O)[C@H](CCC(N)=O)NC(=O)[C@H](CCCCN)NC(=O)[C@H](CC(=O)O)NC(=O)[C@H](CC(C)C)NC(=O)[C@H](Cc1ccc(O)cc1)NC(=O)[C@@H](NC(=O)[C@H](CO)NC(=O)[C@H](Cc1ccc(O)cc1)NC(=O)[C@H](CC(=O)O)NC(=O)[C@H](CO)NC(=O)[C@@H](NC(=O)[C@H](Cc1ccccc1)NC(=O)[C@@H](NC(=O)CNC(=O)[C@H](CCC(=O)O)NC(=O)CSCC(=O)NCCN1C(=O)SC(C)C1=O)[C@@H](C)O)[C@@H](C)O)[C@@H](C)CC)C(C)C)C(N)=O)C(=O)O` (mixture of isomers) [Compound 90], the EC50 on GLP-1R (EC50 GLP-1R/nM, Table 3) lay in the range of 1 to 10 nM; at GLP-1R (EC50 GLP-1R/nM, Table 3A), 1 to 10 nM; on GIP-R (EC50 GIP-R/nM, Table 3) it was 1 to 10 nM; on GIP-R (EC50 GIP-R/nM, Table 3A), 1 to 10 nM. For the same compound, the Emax on GLP-1R (Table 3) came out at 108%; at GLP-1R (Table 3A) it was 108%; on GIP-R (Table 3), 74%; on GIP-R (Table 3A) it was 74%.
Consider `CCCCCCCCCCCCCCCC(=O)N[C@@H](CCC(=O)NCCCC[C@H](NC(=O)[C@H](CO)NC(=O)[C@@H]1CCCN1C(=O)[C@@H]1CCCN1C(=O)[C@@H]1CCCN1C(=O)[C@H](C)NC(=O)CNC(=O)[C@H](CO)NC(=O)[C@H](CO)NC(=O)[C@@H]1CCCN1C(=O)CNC(=O)CNC(=O)[C@H](C)NC(=O)[C@H](CC(C)C)NC(=O)[C@H](CC(C)C)NC(=O)[C@H](Cc1c[nH]c2ccccc12)NC(=O)[C@H](CC(N)=O)NC(=O)[C@@H](NC(=O)[C@H](Cc1ccccc1)NC(=O)[C@H](CCC(=O)O)NC(=O)C(C)(C)NC(=O)[C@H](C)NC(=O)[C@H](C)NC(=O)[C@H](CCC(N)=O)NC(=O)[C@H](CCCCN)NC(=O)[C@H](CC(=O)O)NC(=O)[C@H](CC(C)C)NC(=O)[C@H](Cc1ccc(O)cc1)NC(=O)[C@@H](NC(=O)[C@H](CO)NC(=O)[C@H](Cc1ccc(O)cc1)NC(=O)[C@H](CC(=O)O)NC(=O)[C@H](CO)NC(=O)[C@@H](NC(=O)[C@H](Cc1ccccc1)NC(=O)[C@@H](NC(=O)CNC(=O)[C@H](CCC(=O)O)NC(=O)CSCC(=O)NCCN1C(=O)CCC(c2ccccc2)C1=O)[C@@H](C)O)[C@@H](C)O)[C@@H](C)CC)C(C)C)C(N)=O)C(=O)O` (mixture of isomers) [Compound 95], for which the EC50 lay in the range of 10 to 100 nM on GLP-1R (EC50 GLP-1R/nM, Table 3); 10 to 100 nM on GLP-1R (EC50 GLP-1R/nM, Table 3A); 1 to 10 nM at GIP-R (EC50 GIP-R/nM, Table 3); 10 to 100 nM at GIP-R (EC50 GIP-R/nM, Table 3A). Besides, the Emax at GLP-1R (Table 3) was determined as 84%; at GLP-1R (Table 3A), 84%; on GIP-R (Table 3) it was 20%; at GIP-R (Table 3A) it was 20%.
Turning to `CCCCCCCCCCCCCCCC(=O)N[C@@H](CCC(=O)NCCCC[C@H](NC(=O)[C@H](CO)NC(=O)[C@@H]1CCCN1C(=O)[C@@H]1CCCN1C(=O)[C@@H]1CCCN1C(=O)[C@H](C)NC(=O)CNC(=O)[C@H](CO)NC(=O)[C@H](CO)NC(=O)[C@@H]1CCCN1C(=O)CNC(=O)CNC(=O)[C@H](C)NC(=O)[C@H](CC(C)C)NC(=O)[C@H](CC(C)C)NC(=O)[C@H](Cc1c[nH]c2ccccc12)NC(=O)[C@H](CC(N)=O)NC(=O)[C@@H](NC(=O)[C@H](Cc1ccccc1)NC(=O)[C@H](CCC(=O)O)NC(=O)C(C)(C)NC(=O)[C@H](C)NC(=O)[C@H](C)NC(=O)[C@H](CCC(N)=O)NC(=O)[C@H](CCCCN)NC(=O)[C@H](CC(=O)O)NC(=O)[C@H](CC(C)C)NC(=O)[C@H](Cc1ccc(O)cc1)NC(=O)[C@@H](NC(=O)[C@H](CO)NC(=O)[C@H](Cc1ccc(O)cc1)NC(=O)[C@H](CC(=O)O)NC(=O)[C@H](CO)NC(=O)[C@@H](NC(=O)[C@H](Cc1ccccc1)NC(=O)[C@@H](NC(=O)CNC(=O)[C@H](CCC(=O)O)NC(=O)CSCC(=O)NCCN1C(=O)CC(c2ccccc2)C1=O)[C@@H](C)O)[C@@H](C)O)[C@@H](C)CC)C(C)C)C(N)=O)C(=O)O` (mixture of isomers) [Compound 99], the EC50 was 1 to 10 nM at GLP-1R (EC50 GLP-1R/nM, Table 3); 1 to 10 nM at GLP-1R (EC50 GLP-1R/nM, Table 3A); over 1000 nM at GIP-R (EC50 GIP-R/nM, Table 3); over 1000 nM at GIP-R (read-out: EC50 GIP-R/nM, Table 3A). Also, the Emax on GLP-1R (Table 3) and at GLP-1R (Table 3A) was 102% each time. Besides, the Emax at 1 µM on GIP-R came to 11%.
Consider `CC[C@H](C)[C@H](NC(=O)[C@H](CO)NC(=O)[C@H](Cc1ccc(O)cc1)NC(=O)[C@H](CC(=O)O)NC(=O)[C@H](CO)NC(=O)[C@@H](NC(=O)[C@H](Cc1ccccc1)NC(=O)[C@@H](NC(=O)CNC(=O)[C@H](CCC(=O)O)NC(=O)CSCC(=O)NCCN1C(=O)CC(c2ccccc2)C1=O)[C@@H](C)O)[C@@H](C)O)C(=O)N[C@@H](Cc1ccc(O)cc1)C(=O)N[C@@H](CC(C)C)C(=O)N[C@@H](CC(=O)O)C(=O)N[C@@H](CCCCN)C(=O)N[C@@H](CCC(N)=O)C(=O)N[C@@H](C)C(=O)N[C@@H](C)C(=O)NC(C)(C)C(=O)N[C@@H](CCC(=O)O)C(=O)N[C@@H](Cc1ccccc1)C(=O)N[C@H](C(=O)N[C@@H](CC(N)=O)C(=O)N[C@@H](Cc1c[nH]c2ccccc12)C(=O)N[C@@H](CC(C)C)C(=O)N[C@@H](CC(C)C)C(=O)N[C@@H](C)C(=O)NCC(=O)NCC(=O)N1CCC[C@H]1C(=O)N[C@@H](CO)C(=O)N[C@@H](CO)C(=O)NCC(=O)N[C@@H](C)C(=O)N1CCC[C@H]1C(=O)N1CCC[C@H]1C(=O)N1CCC[C@H]1C(=O)N[C@@H](CO)C(=O)N[C@@H](CCCCN)C(N)=O)C(C)C` (mixture of isomers) [Compound 105], for which the EC50 at GLP-1R (EC50 GLP-1R/nM, Table 3) lay in the range of 10 to 100 nM; at GLP-1R (EC50 GLP-1R/nM, Table 3A), 10 to 100 nM; at GIP-R (EC50 GIP-R/nM, Table 3), 10 to 100 nM. In addition, the Emax at GLP-1R (Table 3) and at GLP-1R (Table 3A) was 90% each time. In addition, the Emax at 1 µM on GIP-R was under 10%.
